Source: article PMC12004362 (RSC Advances, 2025)
pIC50: −log10 of the molar value. Read-outs that look alike come from different tables or passages of the source.

Legend:
BT-12 cells = experiment: Secondary screening; format: cell-based, human
BT-16 cells = experiment: Secondary screening; format: cell-based, human
[1] = test system: human cerebral microvascular endothelial cells (hCMEC/D3 cells)
in vitro [2] = conditions: human
in vitro [3] = conditions: human, primary human astrocytes
primary human astrocytes = experiment: Cytotoxicity test
[4] = acute use for gout flares, doses up to 1.8 mg within 2 hours; cited from earlier work
[5] = Homo sapiens, BT-12, 72 h, read-out: BT-12 cells IC50, 2D culture, 72 h, MTT
[6] = Homo sapiens, BT-16, 72 h, read-out: BT-16 cells IC50, 2D culture, 72 h, MTT
[7] = read-out: BT-12 cells IC50, 2D culture, 72 h, MTT
[8] = read-out: BT-16 cells IC50, 2D culture, 72 h, MTT

SMILES | pIC50 (BT-12 cells; [5]) | pIC50 (BT-16 cells; [6]) | SI (CC50/IC50) hCMEC/D3: BT-12 ([1]; CC50 hCMEC/D3 / IC50 BT-12) | SI (CC50/IC50) hCMEC/D3: BT-16 ([1]; CC50 hCMEC/D3 / IC50 BT-16) | CC50 at 72 h (in vitro [2]) [µM] | CC50 at 72 h (in vitro [3]) [µM] | SI (CC50/IC50) Astrocytes: BT-12 (primary human astrocytes; CC50 astrocytes / IC50 BT-12) | SI (CC50/IC50) Astrocytes: BT-16 (primary human astrocytes; CC50 astrocytes / IC50 BT-16) | pIC50 (BT-12 cells; [7]) | pIC50 (BT-16 cells; [8]) | Diarrhea, most frequently reported side effect [4] [%]
COc1cccc2c1C(=O)c1c(O)c3c(c(O)c1C2=O)C[C@@](O)(C(=O)CO)C[C@@H]3O[C@H]1C[C@H](N)[C@H](O)[C@H](C)O1 [Doxorubicin] | 7.55 | 7.38 | 24.964 | 16.64 | 0.699 | 0.131 | 4.679 | 3.119 |  |  | 
CC[C@H]1CN2CCc3cc(OC)c(OC)cc3[C@@H]2C[C@@H]1C[C@H]1NCCc2cc(OC)c(OC)cc21 [Emetine] | > 7.00 | > 7.00 |  |  |  | 1.24 |  |  | 7.05 | 7.03 | 
C[C@H]1O[C@@H](O[C@H]2[C@@H](O)C[C@H](O[C@H]3[C@@H](O)C[C@H](O[C@H]4CC[C@@]5(C)[C@H](CC[C@@H]6[C@@H]5C[C@@H](O)[C@]5(C)[C@@H](C7=CC(=O)OC7)CC[C@]65O)C4)O[C@@H]3C)O[C@@H]2C)C[C@H](O)[C@@H]1O [Digoxin] | > 7.00 | > 7.00 |  |  |  |  |  |  | 7.10 | 7.12 | 
COc1cc2c(c(OC)c1OC)-c1ccc(OC)c(=O)cc1[C@@H](NC(C)=O)CC2 [Colchicine] |  |  |  |  | > 20 | > 20 |  |  |  |  | 23
